# Reference: US20230265151A1, “GIP/GLP1 CO-AGONIST COMPOUNDS” (priority 2020, published 2023)
# Read-outs that look alike come from different tables or passages of the source.
# What was measured:
# hGLP-1R = hGLP-1R (Homo sapiens, UniProt P43220); experiment: Functional cAMP formation (HTRF) in HEK-293 clonal cells expressing hGLP-1R, 0.1% bovine casein, without or with 1.0% human serum albumin; assay type: cell-based; parameters: expressed in transfected cells; details: for EC50: read-out: hGLP-1R EC50, nM (SEM, n)
# Outline: (§1)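 Readings of the HTRF 665/620 nm ratio, which falls as cAMP rises, were converted to nM cAMP using a standard curve after 30 min peptide exposure at 37° C.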
# hGIPR = target: T1, hGIPR (Homo sapiens, UniProt P48546); experiment: Functional cAMP formation (HTRF) in HEK-293 clonal cells expressing hGIPR, 0.1% bovine casein, without or with 1.0% human serum albumin; assay type: cell-based; details: for Emax: percent of maximal response to GIP(1-42)NH2, read-out: hGIPR Emax, % ± SEM; for EC50: read-out: hGIPR EC50, nM (SEM, n)
# T1 construct: expressed in transfected cells
# T1 sequence (P48546 22-466): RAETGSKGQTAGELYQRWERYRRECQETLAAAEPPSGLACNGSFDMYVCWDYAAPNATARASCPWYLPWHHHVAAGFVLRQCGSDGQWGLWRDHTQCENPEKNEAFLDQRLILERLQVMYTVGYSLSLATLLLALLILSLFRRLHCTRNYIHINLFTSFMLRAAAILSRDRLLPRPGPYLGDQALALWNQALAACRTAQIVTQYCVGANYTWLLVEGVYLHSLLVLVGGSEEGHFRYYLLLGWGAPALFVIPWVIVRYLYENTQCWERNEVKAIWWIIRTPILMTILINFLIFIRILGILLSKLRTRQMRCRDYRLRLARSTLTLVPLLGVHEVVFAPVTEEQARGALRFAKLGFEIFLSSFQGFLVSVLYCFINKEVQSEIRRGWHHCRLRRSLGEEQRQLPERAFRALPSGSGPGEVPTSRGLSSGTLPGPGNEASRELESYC
# Outline: as §1
# hGCGR = target: T2, hGCGR (Homo sapiens, UniProt P47871); experiment: Functional cAMP formation (HTRF) in HEK-293 clonal cells expressing hGCGR, 0.1% bovine casein, without or with 1.0% human serum albumin; assay type: cell-based; details: read-out: hGCGR EC50, nM (SEM, n)
# T2 construct: expressed in transfected cells
# Outline: as §1
# [1] = target: T3, human GIP receptor (hGIPR) (Homo sapiens, UniProt P48546); experiment: [125I]-GIP binding, SPA with membranes of CHO cells expressing hGIPR; details: human GIPR; geometric mean (SEM, n); read-out: Binding Affinity Ki, nM (SEM, n) hGIPR
# T3 construct: expressed in transfected cells; crude membranes
# T3 sequence (P48546 22-466): T1 sequence (P48546 22-466)
# Description: Two methods are used for the preparation of crude cell membranes.
# Method 1: Frozen cell pellets are lysed on ice in hypotonic buffer containing 50 mM Tris HCl, pH 7.5, and Roche Complete™ Protease Inhibitors with EDTA. […] The homogenate is centrifuged at 4° C. at 1100 × g for 10 minutes. The supernatant is collected and stored on ice while the pellets are resuspended in homogenization buffer and rehomogenized as described above. The homogenate is centrifuged at 1100 × g for 10 minutes. The second supernatant is combined with the first supernatant and centrifuged at 35000 × g for 1 hour at 4° C. The resulting membrane pellet is resuspended in homogenization buffer containing protease inhibitors at approximately 1 to 3 mg/mL, quick frozen in liquid nitrogen and stored as aliquots in a -80° C. freezer until use.
# The homogenate is centrifuged at 4° C. at 1800 × g for 15 minutes. The supernatant is collected and stored on ice while the pellets are resuspended in homogenization buffer (without DNAse I) and rehomogenized as described above. The homogenate is centrifuged at 1800 × g for 15 minutes. The second supernatant is combined with the first supernatant and centrifuged an additional time at 1800 × g for 15 minutes. The overall supernatant is then centrifuged at 25000 × g for 30 minutes at 4° C. The resulting membrane pellet is resuspended in homogenization buffer (without DNAse I) containing protease inhibitors at approximately 1 to 3 mg/mL and stored as aliquots in a -80° C. freezer until use.
# The binding buffer contains 25 mM HEPES, pH 7.4, 2.5 mM CaCl2, 1 mM MgCl2, 0.1% (w/v) bacitracin, 0.003% (w/v) TWEEN®-20, and Roche Complete™ Protease Inhibitors without EDTA. Peptides and GIP are thawed and 3 fold serially diluted in 100% DMSO (10 point concentration response curves). […] Plates are sealed and mixed on a plate shaker (setting 6) for 1 minute and read with a PerkinElmer Trilux MicroBeta® scintillation counter after 2.5 to 12 hours of incubation/settling time at room temperature.
# Raw CPM data for concentration curves of peptides, Gcg, GLP-1, or GIP are converted to percent inhibition by subtracting nonspecific binding (binding in the presence of excess unlabeled Gcg, GLP-1, or GIP, respectively) from the individual CPM values and dividing by the total binding signal, also corrected by subtracting nonspecific binding. Data are analyzed using four-parameter (curve maximum, curve minimum, IC50, Hill slope) nonlinear regression routines (Genedata Screener, version 12.0.4, Genedata AG, Basal, Switzerland). […] Values for Ki are reported as the geometric mean, with error expressed as the standard error of the mean (SEM) and n is equal to the number of independent replicates (determined in assays performed on different days). Geometric Means are calculated as follows: […]
# The Ki Ratio (Ki for native control peptide/Ki for test compound) at each receptor and each species is calculated. The Ki Ratio is a rapid indication of the apparent affinity of a peptide compared to the native control peptide.
# n=⅟x means that only one value out of the total number of replicates (x) is used to express the mean. SEM is only calculated when n=2 or greater non-qualified results exist. Means are expressed as GeoMetric means with the standard error of the mean (SEM) and the number of replicates (n) indicated in parenthesis.
# [2] = cAMP, 37° C., 0.1% bovine casein (no human serum albumin), geometric mean
# [3] = cAMP, 37° C., 0.1% bovine casein and 1.0% human serum albumin, geometric mean (SEM, n)
# [4] = 0.1% bovine casein and 1.0% human serum albumin, 37° C., geometric mean
# [5] = cAMP, incubated at 37° C., 0.1% bovine casein (no human serum albumin), geometric mean
# T2 sequence (P47871 26-477): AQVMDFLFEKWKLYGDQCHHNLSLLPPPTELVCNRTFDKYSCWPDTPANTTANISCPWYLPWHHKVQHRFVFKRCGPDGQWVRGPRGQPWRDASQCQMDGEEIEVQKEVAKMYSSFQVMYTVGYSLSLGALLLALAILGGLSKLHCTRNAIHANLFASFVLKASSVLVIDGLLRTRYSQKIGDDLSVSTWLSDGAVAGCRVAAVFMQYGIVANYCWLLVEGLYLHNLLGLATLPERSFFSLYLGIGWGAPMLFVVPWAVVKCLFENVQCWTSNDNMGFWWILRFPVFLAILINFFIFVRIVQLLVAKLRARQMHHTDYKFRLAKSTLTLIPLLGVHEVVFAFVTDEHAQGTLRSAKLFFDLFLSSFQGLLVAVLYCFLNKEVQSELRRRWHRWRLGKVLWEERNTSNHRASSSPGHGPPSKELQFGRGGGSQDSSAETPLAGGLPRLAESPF
# hGLP-1R, sequence (P43220 24-463): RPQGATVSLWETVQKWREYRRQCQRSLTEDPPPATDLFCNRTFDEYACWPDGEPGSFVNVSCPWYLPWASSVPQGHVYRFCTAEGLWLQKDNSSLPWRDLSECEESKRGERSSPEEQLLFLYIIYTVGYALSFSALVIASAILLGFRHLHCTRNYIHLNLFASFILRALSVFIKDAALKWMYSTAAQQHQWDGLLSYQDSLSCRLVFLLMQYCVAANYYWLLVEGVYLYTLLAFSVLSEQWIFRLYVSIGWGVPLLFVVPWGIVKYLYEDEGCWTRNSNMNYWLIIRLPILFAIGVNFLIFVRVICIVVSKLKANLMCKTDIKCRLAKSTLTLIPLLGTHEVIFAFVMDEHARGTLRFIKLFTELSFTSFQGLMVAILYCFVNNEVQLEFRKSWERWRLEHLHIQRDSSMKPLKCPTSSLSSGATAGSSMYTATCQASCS
SMILES,"Emax (hGLP-1R; HEK293, cAMP, 37° C., 0.1% bovine casein and 1.0% human serum albumin, percent of maximal response to GLP-1(7-36)NH2, read-out: hGLP-1R Emax, % ± SEM)",EC50 (hGLP-1R; [2]),EC50 (hGLP-1R; [3]),"Emax (hGIPR; HEK293, cAMP, 37° C., 0.1% bovine casein and 1.0% human serum albumin)","Emax (hGIPR; HEK293, cAMP, 37° C., 0.1% bovine casein, arithmetic mean)",EC50 (hGIPR; [2]),EC50 (hGIPR; [3]),EC50 (hGCGR; [2]),EC50 (hGCGR; [3]),Ki [1],EC50 (hGLP-1R; [4]),EC50 (hGLP-1R; [5]),EC50 (hGIPR; [4]),EC50 (hGIPR; [5]),EC50 (hGCGR; [4]),EC50 (hGCGR; [5]),"Emax (hGIPR; HEK293, 0.1% bovine casein and 1.0% human serum albumin, 37° C.)"
CCCCCCCCCCCC(=O)N[C@@H](CCC(=O)NCCOCCOCC(=O)NCCOCCOCC(=O)NCCCC[C@H](NC(=O)[C@H](CO)NC(=O)[C@@H]1CCCN1C(=O)[C@@H]1CCCN1C(=O)[C@@H]1CCCN1C(=O)[C@H](C)NC(=O)CNC(=O)[C@H](CO)NC(=O)[C@H](CO)NC(=O)[C@@H]1CCCN1C(=O)CNC(=O)CNC(=O)[C@H](CCC(=O)O)NC(=O)[C@@H](NC(=O)[C@H](CC(C)C)NC(=O)[C@](C)(Cc1ccc(O)cc1)NC(=O)[C@@H](CCC(=O)O)NC(=O)[C@@H](NC(=O)[C@H](Cc1ccccc1)NC(=O)[C@H](CCCN)NC(=O)C(C)(C)NC(=O)[C@H](CCC(N)=O)NC(=O)[C@H](C)NC(=O)[C@H](CCCCNC(=O)COCCOCCNC(=O)COCCOCCNC(=O)CC[C@H](NC(=O)CCCCCCCCCCC)C(=O)O)NC(=O)[C@H](CCCN)NC(=O)[C@H](CC(=O)O)NC(=O)[C@H](CC(C)C)NC(=O)[C@](C)(CC(C)C)NC(=O)[C@@H](NC(=O)C(C)(C)NC(=O)[C@H](Cc1ccncc1)NC(=O)[C@H](CC(=O)O)NC(=O)[C@H](CO)NC(=O)[C@@H](NC(=O)[C@](C)(Cc1ccccc1F)NC(=O)[C@@H](NC(=O)CNC(=O)[C@H](CCC(=O)O)NC(=O)C(C)(C)NC(=O)[C@@H](N)Cc1ccc(O)cc1)[C@@H](C)O)[C@@H](C)O)[C@@H](C)CC)[C@@H](C)CC)[C@@H](C)CC)C(N)=O)C(=O)O [Example 418],98.8%,0.0603 nM,1.72 nM,87.2%,91%,0.00599 nM,0.126 nM,> 9950 nM,> 9950 nM,0.0174 nM,–,–,–,–,–,–,–
CC[C@H](C)[C@H](NC(=O)[C@H](CC(C)C)NC(=O)[C@](C)(Cc1ccc(O)cc1)NC(=O)[C@@H](CCC(=O)O)NC(=O)[C@@H](NC(=O)[C@H](Cc1ccccc1)NC(=O)[C@H](CCC(=O)O)NC(=O)C(C)(C)NC(=O)[C@H](CCC(N)=O)NC(=O)[C@H](C)NC(=O)[C@H](CCCCNC(=O)[C@@H](N)CCCCNC(=O)[C@@H](N)CCCCNC(=O)CC[C@H](NC(=O)CCCCCCCCCCCCC(=O)O)C(=O)O)NC(=O)[C@H](CCCN)NC(=O)[C@H](CC(=O)O)NC(=O)[C@H](CC(C)C)NC(=O)[C@](C)(CC(C)C)NC(=O)[C@@H](NC(=O)[C@H](CO)NC(=O)[C@H](Cc1ccncc1)NC(=O)[C@H](CC(=O)O)NC(=O)[C@H](CO)NC(=O)[C@@H](NC(=O)[C@](C)(Cc1ccccc1F)NC(=O)[C@@H](NC(=O)CNC(=O)[C@H](CCC(=O)O)NC(=O)C(C)(C)NC(=O)[C@@H](N)Cc1ccc(O)cc1)[C@@H](C)O)[C@@H](C)O)[C@@H](C)CC)[C@@H](C)CC)C(=O)N[C@@H](CCC(=O)O)C(=O)NCC(=O)NCC(=O)N[C@@H](CCCCNC(=O)[C@@H](N)CCCCNC(=O)[C@@H](N)CCCCNC(=O)CC[C@H](NC(=O)CCCCCCCCCCCCC(=O)O)C(=O)O)C(=O)N[C@@H](CO)C(=O)N[C@@H](CO)C(=O)NCC(=O)N[C@@H](C)C(=O)N1CCC[C@H]1C(=O)N1CCC[C@H]1C(=O)N1CCC[C@H]1C(=O)N[C@@H](CO)C(N)=O [Example 40],–,–,–,–,–,–,–,–,–,0.163 nM,6.69 nM,0.279 nM,0.301 nM,0.0116 nM,> 9950 nM,> 9950 nM,–
CCCCCCCCCCCCCCCC(=O)N[C@@H](CCC(=O)NCCOCCOCC(=O)NCCOCCOCC(=O)NCCCC[C@H](NC(=O)[C@H](CO)NC(=O)[C@@H]1CCCN1C(=O)[C@@H]1CCCN1C(=O)[C@@H]1CCCN1C(=O)[C@H](C)NC(=O)CNC(=O)[C@H](CO)NC(=O)[C@H](CO)NC(=O)[C@@H]1CCCN1C(=O)CNC(=O)CNC(=O)[C@H](CCC(=O)O)NC(=O)[C@@H](NC(=O)[C@H](CC(C)C)NC(=O)[C@](C)(Cc1ccc(O)cc1)NC(=O)[C@@H](CCC(=O)O)NC(=O)[C@@H](NC(=O)[C@H](Cc1ccccc1)NC(=O)[C@H](CCC(=O)O)NC(=O)C(C)(C)NC(=O)[C@H](CCC(N)=O)NC(=O)[C@H](C)NC(=O)[C@H](CCCCNC(=O)COCCOCCNC(=O)COCCOCCNC(=O)CC[C@H](NC(=O)CCCCCCCCCCCCCCC)C(=O)O)NC(=O)[C@H](CCCN)NC(=O)[C@H](CC(=O)O)NC(=O)[C@H](CC(C)C)NC(=O)[C@](C)(CC(C)C)NC(=O)[C@@H](NC(=O)[C@H](CO)NC(=O)[C@H](Cc1ccncc1)NC(=O)[C@H](CC(=O)O)NC(=O)[C@H](CO)NC(=O)[C@@H](NC(=O)[C@](C)(Cc1ccccc1F)NC(=O)[C@@H](NC(=O)CNC(=O)[C@H](CCC(=O)O)NC(=O)C(C)(C)NC(=O)[C@@H](N)Cc1ccc(O)cc1)[C@@H](C)O)[C@@H](C)O)[C@@H](C)CC)[C@@H](C)CC)[C@@H](C)CC)C(N)=O)C(=O)O [Example 25],–,–,–,–,–,–,–,–,–,0.0293 nM,1.11 nM,–,0.274 nM,–,> 9950 nM,> 9950 nM,94.3 ± 1.73%
